In US10940139B2, “Compounds that interact with the Ras superfamily for the treatment of cancers, inflammatory diseases, rasopathies, and fibrotic disease” (Shy Therapeutics LLC, priority 2017, dated 2021):
Like-named read-outs stand apart in the source and are kept apart here.

Tests used:
Experiment in all cases: Ras GTP binding domain inhibition assay (labeled GTP)
KRas G12D mutant protein = KRas G12D mutant protein (Homo sapiens (Human), UniProt P01116, G12D); conditions: 20 μM compound
KRas G12C mutant = KRas G12C mutant (Homo sapiens (Human), UniProt P01116, G12C); conditions: 20 μM compound
Chain of KRas G12C mutant (P01116-2 other isoform, or with tags, fused parts or gaps G12C): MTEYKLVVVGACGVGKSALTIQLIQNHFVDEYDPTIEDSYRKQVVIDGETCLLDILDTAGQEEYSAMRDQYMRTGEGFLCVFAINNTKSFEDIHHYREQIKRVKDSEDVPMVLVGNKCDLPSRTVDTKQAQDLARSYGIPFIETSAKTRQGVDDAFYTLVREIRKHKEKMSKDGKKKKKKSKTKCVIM
Outline: (§1)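 Inhibition of labeled GTP binding is measured on immobilized His-KRas protein in Tris buffer pH 7.5 with 1 mM MgCl2 and 1 mM DTT.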

KRas wild type = KRas wild type (Homo sapiens (Human), UniProt P01116); conditions: 20 μM compound
Chain of KRas wild type (P01116-2 other isoform, or with tags, fused parts or gaps): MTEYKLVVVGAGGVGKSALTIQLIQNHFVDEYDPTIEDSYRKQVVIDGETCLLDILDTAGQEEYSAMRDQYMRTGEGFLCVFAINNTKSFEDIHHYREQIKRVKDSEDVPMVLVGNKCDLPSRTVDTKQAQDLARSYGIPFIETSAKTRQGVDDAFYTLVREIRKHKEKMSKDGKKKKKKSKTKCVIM
Outline: as §1

[1] = target: KRas G12D/Q61H double mutant (Homo sapiens (Human), UniProt P01116, G12D/Q61H); conditions: for inhibition at 20 µM: 20 μM compound; for IC50: serial dilution, read-out: KRas G12D Q61H (classes E-H, IC50)
Chain of KRas G12D/Q61H double mutant (P01116-2 other isoform, or with tags, fused parts or gaps G12D/Q61H): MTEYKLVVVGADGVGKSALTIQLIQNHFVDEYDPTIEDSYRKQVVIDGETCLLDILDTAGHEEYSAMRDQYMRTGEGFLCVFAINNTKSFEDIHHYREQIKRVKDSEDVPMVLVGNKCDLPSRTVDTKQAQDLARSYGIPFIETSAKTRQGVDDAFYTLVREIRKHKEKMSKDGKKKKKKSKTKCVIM
Outline: as §1

KRas Q61H mutant = KRas Q61H mutant (Homo sapiens (Human), UniProt P01116, Q61H); conditions: 20 μM compound
Chain of KRas Q61H mutant (P01116-2 other isoform, or with tags, fused parts or gaps Q61H): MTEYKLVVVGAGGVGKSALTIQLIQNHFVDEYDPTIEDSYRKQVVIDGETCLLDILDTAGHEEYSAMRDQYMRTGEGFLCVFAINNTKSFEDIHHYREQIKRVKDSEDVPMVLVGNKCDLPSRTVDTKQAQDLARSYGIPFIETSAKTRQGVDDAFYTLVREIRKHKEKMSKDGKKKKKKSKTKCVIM
Outline: as §1

[2] = target: KRas G12C/Q61H double mutant (Homo sapiens (Human), UniProt P01116, G12C/Q61H); conditions: 20 μM compound
Chain of KRas G12C/Q61H double mutant (P01116-2 other isoform, or with tags, fused parts or gaps G12C/Q61H): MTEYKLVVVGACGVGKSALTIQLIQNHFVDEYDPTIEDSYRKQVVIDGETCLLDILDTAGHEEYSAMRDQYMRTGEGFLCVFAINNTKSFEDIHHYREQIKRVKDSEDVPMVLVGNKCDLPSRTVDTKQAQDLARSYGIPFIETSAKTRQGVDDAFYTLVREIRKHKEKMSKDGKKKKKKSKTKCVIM
Outline: as §1

[3] = KRas G12D, read-out: % Inhibition at 20 μM of K-Ras mutant and wild-type protein, KRas G12D
[4] = KRas G12C, read-out: % Inhibition at 20 μM of K-Ras mutant and wild-type protein, KRas G12C
[5] = KRas wild type, read-out: % Inhibition at 20 μM of K-Ras mutant and wild-type protein, KRas wild type
[6] = KRas G12D/Q61H double mutant, read-out: % Inhibition at 20 μM of K-Ras mutant and wild-type protein, KRas G12D Q61H
[7] = KRas Q61H, read-out: % Inhibition at 20 μM of K-Ras mutant and wild-type protein, KRas Q61H
[8] = KRas G12C/Q61H double mutant, read-out: % Inhibition at 20 μM of K-Ras mutant and wild-type protein, KRas G12C Q61H
[9] = read-out: % Inhibition at 20 μM KRas G12D
[10] = read-out: % Inhibition at 20 μM KRas G12C
[11] = read-out: % Inhibition at 20 μM KRas wild type
[12] = read-out: % Inhibition at 20 μM KRas G12D Q61H
[13] = read-out: % Inhibition at 20 μM KRas Q61H
[14] = read-out: % Inhibition at 20 μM KRas G12C Q61H

Chain of KRas G12D mutant protein (P01116-2 other isoform, or with tags, fused parts or gaps G12D): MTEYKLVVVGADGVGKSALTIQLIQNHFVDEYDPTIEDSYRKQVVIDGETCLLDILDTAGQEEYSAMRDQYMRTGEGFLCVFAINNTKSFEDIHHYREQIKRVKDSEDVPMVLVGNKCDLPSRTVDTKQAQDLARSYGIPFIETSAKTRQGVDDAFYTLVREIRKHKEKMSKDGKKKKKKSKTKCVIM

inhibition at 20 µM (KRas G12D mutant protein; [3]) [%]	inhibition at 20 µM (KRas G12C mutant; [4]) [%]	inhibition at 20 µM (KRas wild type; [5]) [%]	inhibition at 20 µM [1, 6] [%]	inhibition at 20 µM (KRas Q61H mutant; [7]) [%]	inhibition at 20 µM [2, 8] [%]	inhibition at 20 µM (KRas G12D mutant protein; [9]) [%]	inhibition at 20 µM (KRas G12C mutant; [10]) [%]	inhibition at 20 µM (KRas wild type; [11]) [%]	inhibition at 20 µM [1, 12] [%]	inhibition at 20 µM (KRas Q61H mutant; [13]) [%]	inhibition at 20 µM [2, 14] [%]	SMILES	IC50 [1] [µM]
25 to 50	25 to 50	25 to 50	51 to 75	76 to 100	51 to 75	–	–	–	–	–	–	COc1nc(-c2ccccn2)nc2c(C3CCCC3)csc12 [drawing 3470]	–
–	–	–	–	–	–	51 to 75	51 to 75	25 to 50	51 to 75	51 to 75	51 to 75	COc1ccc(-c2csc3c(O)nc(-c4ccccn4)nc23)c(C)c1 [drawing 2881]	–
51 to 75	51 to 75	51 to 75	51 to 75	51 to 75	76 to 100	–	–	–	–	–	–	COCCNc1nc(-c2ccccn2)nc2c1c(-c1ccccc1)nn2-c1ccccn1 [drawing 3538]	–
51 to 75	51 to 75	25 to 50	51 to 75	51 to 75	51 to 75	–	–	–	–	–	–	Cc1sc2c(O)nc(-c3ccccn3)nc2c1C(=O)N1CCN(c2ccccc2)CC1C (centres unmarked) [drawing 3509]	–
–	–	–	–	–	–	51 to 75	25 to 50	51 to 75	51 to 75	76 to 100	76 to 100	COc1ccnc(-c2nc(O)c3c(Cl)csc3n2)c1 [drawing 2800]	11 to 30
51 to 75	51 to 75	1 to 25	51 to 75	51 to 75	76 to 100	–	–	–	–	–	–	Oc1nc(-c2ccccn2)nc(Oc2cccc(C(F)(F)F)c2)c1O [drawing 3558]	–
25 to 50	51 to 75	1 to 25	51 to 75	76 to 100	76 to 100	–	–	–	–	–	–	OCC1(c2ccc(-c3nc(-c4ccccn4)nc(O)c3Oc3ccccc3)cc2)CC1 [drawing 3534]	–
–	–	–	–	–	–	51 to 75	51 to 75	25 to 50	51 to 75	51 to 75	51 to 75	COc1ccnc(-c2nc(O)c3ccsc3n2)c1 [drawing 2708]	5 to 10
–	–	–	–	–	–	76 to 100	25 to 50	51 to 75	25 to 50	1 to 25	1 to 25	COc1cccc(-c2csc3c(O)nc(-c4ccccn4)nc23)c1 [drawing 2872]	–
51 to 75	25 to 50	25 to 50	25 to 50	51 to 75	51 to 75	–	–	–	–	–	–	Cc1sc2c(O)nc(-c3ccccn3)nc2c1-c1cccnc1 [drawing 3468]	–
25 to 50	51 to 75	25 to 50	25 to 50	51 to 75	25 to 50	–	–	–	–	–	–	O=c1[nH]c(-c2ccccn2)nc2c([C@@H]3O[C@H](CO)[C@@H](O)[C@H]3O)csc12 [drawing 3527]	–
–	–	–	–	–	–	51 to 75	25 to 50	25 to 50	76 to 100	76 to 100	76 to 100	O=C(c1csc2c(O)nc(-c3ccccn3)nc12)N1CC2CC1CN2c1ccccc1 (centres unmarked) [drawing 2838]	–
–	–	–	–	–	–	25 to 50	1 to 25	25 to 50	25 to 50	25 to 50	51 to 75	Nc1nc(-c2ccccn2)nc2c(-c3ccccc3)csc12 [drawing 2859]	–
25 to 50	51 to 75	25 to 50	51 to 75	51 to 75	25 to 50	–	–	–	–	–	–	COCC(C)Nc1nc(-c2ccccn2)nc2sc(-c3ccncc3)c(-c3ccccc3)c12 (centres unmarked) [drawing 3541]	–
–	–	–	–	–	–	76 to 100	25 to 50	76 to 100	51 to 75	51 to 75	51 to 75	OCC1(c2ccc(-c3csc4c(O)nc(-c5ccccn5)nc34)cc2)CC1 [drawing 2886]	–
51 to 75	25 to 50	51 to 75	51 to 75	25 to 50	25 to 50	–	–	–	–	–	–	Oc1nc(-c2ccccn2)nc2cc(-c3ccccc3)sc12 [drawing 3562]	–
–	–	–	–	–	–	51 to 75	25 to 50	76 to 100	51 to 75	51 to 75	51 to 75	Cc1cnccc1-c1csc2c(O)nc(-c3ccccn3)nc12 [drawing 2888]	–
–	–	–	–	–	–	25 to 50	25 to 50	25 to 50	25 to 50	25 to 50	25 to 50	CNC(=O)c1ccc(-c2csc3c(O)nc(-c4ccccn4)nc23)cc1C [drawing 2885]	–

SMILES	inhibition at 20 µM (KRas G12D mutant protein; [3]) [%]	inhibition at 20 µM (KRas G12C mutant; [4]) [%]	inhibition at 20 µM (KRas wild type; [5]) [%]	inhibition at 20 µM [1, 6] [%]	inhibition at 20 µM (KRas Q61H mutant; [7]) [%]	inhibition at 20 µM [2, 8] [%]	inhibition at 20 µM (KRas G12D mutant protein; [9]) [%]	inhibition at 20 µM (KRas G12C mutant; [10]) [%]	inhibition at 20 µM (KRas wild type; [11]) [%]	inhibition at 20 µM [1, 12] [%]	inhibition at 20 µM (KRas Q61H mutant; [13]) [%]	inhibition at 20 µM [2, 14] [%]	IC50 [1] [µM]
CC1CN(c2ccccc2)CCN1C(=O)c1csc2c(O)nc(-c3ccccn3)nc12 (centres unmarked) [drawing 2761]	–	–	–	–	–	–	76 to 100	51 to 75	25 to 50	51 to 75	76 to 100	76 to 100	5 to 10
Oc1cccc(-c2csc3c(O)nc(-c4ccccn4)nc23)n1 [drawing 3498]	25 to 50	25 to 50	51 to 75	51 to 75	76 to 100	51 to 75	–	–	–	–	–	–	–
Oc1nc(-c2ccccn2)nc2c(C3CC3)csc12 [drawing 3518]	51 to 75	25 to 50	25 to 50	25 to 50	25 to 50	1 to 25	–	–	–	–	–	–	–
O=C(c1csc2c(O)nc(-c3ccccn3)nc12)N1CCOC(c2ccccc2Cl)C1 (centres unmarked) [drawing 2769]	–	–	–	–	–	–	25 to 50	25 to 50	51 to 75	51 to 75	76 to 100	76 to 100	5 to 10
CC(C)Oc1cnc(-c2ccccn2)nc1O [drawing 3481]	51 to 75	51 to 75	25 to 50	51 to 75	51 to 75	76 to 100	–	–	–	–	–	–	–
COc1ccc(CCC(=O)Nc2nc(-c3ccccn3)nc3sccc23)cn1 [drawing 3493]	51 to 75	25 to 50	25 to 50	51 to 75	76 to 100	51 to 75	–	–	–	–	–	–	–
CN1CCN(c2nc(-c3ccccn3)nc3scc(C(=O)NCCc4cnc(O)nc4)c23)CC1 [drawing 2899]	–	–	–	–	–	–	51 to 75	1 to 25	1 to 25	25 to 50	51 to 75	51 to 75	> 30
CN(C)Cc1ccc(-c2csc3c(O)nc(-c4ccccn4)nc23)cc1F [drawing 2845]	–	–	–	–	–	–	76 to 100	25 to 50	51 to 75	76 to 100	76 to 100	76 to 100	–
